According to the supplement of paper PMC11150407:

Key:
Assay in all cases: cell viability relative to vehicle (fraction); higher = less inhibition
Conditions in all cases: 72 h
PR#003 = tested on: PR#003
Protocol: (§1)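 Primary 3q26 AML patient cells were treated for 72 h with AR-42, belinostat or entinostat (0.01-2 uM, 2-fold dilutions), in duplicate. Viability was measured by ATP-based luminescence and normalised to vehicle, given as a fraction.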

PR#0023 = tested on: PR#0023
Protocol: as §1

PR#002 = tested on: PR#002
Protocol: as §1

PR#008 = tested on: PR#008
Protocol: as §1

PR#004 = tested on: PR#004
Protocol: as §1

PR#005 = tested on: PR#005
Protocol: as §1

PR#0024 = tested on: PR#0024
Protocol: as §1

PR#007 = tested on: PR#007
Protocol: as §1

PR#006 = tested on: PR#006
Protocol: as §1

O=C(/C=C/c1cccc(S(=O)(=O)Nc2ccccc2)c1)NO [Belinostat]
cell viability
Conditions	PR#002	PR#003	PR#004	PR#005	PR#006	PR#007	PR#008	PR#0023	PR#0024
0.016 µM	1.22	1.12	0.978	0.798	1.048	0.981	0.643	0.933	0.97
0.031 µM	1.08	1.12	0.967	0.698	0.987	0.961	0.642	0.917	0.882
0.0625 µM	1.01	0.9713	0.7834	0.979	0.941	0.897	0.468	0.893	0.77
0.125 µM	1.01	0.874	0.577	0.871	0.729	0.854	0.391	0.8339	0.609
0.25 µM	0.902	0.562	0.326	0.524	0.481	0.717	0.247	0.777	0.363
0.5 µM	0.492	0.3	0.125	0.404	0.177	0.4339	0.0828	0.611	0.184
1 µM	0.114	0.0978	0.0685	0.108	0.0585	0.173	0.0197	0.325	0.0781
2 µM	0.0243	0.0452	0.0602	0.0361	0.035	0.0759	0.0115	0.0655	0.0477

CC(C)[C@H](C(=O)Nc1ccc(C(=O)NO)cc1)c1ccccc1 [AR-42]
cell viability
Conditions	PR#002	PR#003	PR#004	PR#005	PR#006	PR#007	PR#008	PR#0023	PR#0024
0.016 µM	1	1.01	0.809	0.962	0.936	0.988	0.553	0.955	0.953
0.031 µM	0.938	0.853	0.646	0.977	0.904	1.0115	0.434	0.984	0.81
0.0625 µM	0.855	0.797	0.417	0.833	0.902	1.01	0.3	0.675	0.67
0.125 µM	0.792	0.503	0.248	0.991	0.552	0.872	0.199	0.785	0.4575
0.25 µM	0.508	0.247	0.132	0.928	0.367	0.748	0.0865	0.441	0.259
0.5 µM	0.124	0.0952	0.0759	0.239	0.104	0.443	0.0168	0.4779	0.127
1 µM	0.0233	0.0399	0.0688	0.0777	0.0486	0.155	0.0142	0.116	0.0553
2 µM	0.01971	0.0313	0.0591	0.0322	0.0395	0.0706	0.016	0.0583	0.0347

Nc1ccccc1NC(=O)c1ccc(CNC(=O)OCc2cccnc2)cc1 [Entinostat]
cell viability
Conditions	PR#002	PR#003	PR#004	PR#005	PR#006	PR#007	PR#008	PR#0023	PR#0024
0.016 µM	1.02	0.949	0.78	1.04	0.961	0.934	0.764	0.932	1.08
0.031 µM	0.94	1	0.673	0.625	0.813	0.903	0.691	0.923	1.02
0.0625 µM	0.869	0.91	0.472	0.534	0.731	0.938	0.49	0.806	0.924
0.125 µM	0.736	0.735	0.298	0.437	0.555	0.918	0.303	0.7626	0.827
0.25 µM	0.593	0.536	0.183	0.475	0.434	0.778	0.186	0.6886	0.682
0.5 µM	0.396	0.281	0.1099	0.203	0.2018	0.666	0.0771	0.589	0.516
1 µM	0.0907	0.115	0.0717	0.06904	0.115	0.345	0.0229	0.423	0.285
2 µM	0.0309	0.0591	0.0662	0.0415	0.065	0.168	0.00956	0.183	0.14
